Test results published in patent US11420950B2, “Heterocyclicalkyl derivative compounds as selective histone deacetylase inhibitors and pharmaceutical compositions comprising the same” (Chong Kun Dang Pharmaceutical Corp., priority 2015, dated 2022).

What was measured:
HDAC6 human recombinant = target: T1, HDAC6 human recombinant (Homo sapiens, UniProt Q9UBN7); assay: HDAC6 enzyme inhibition, fluorimetric assay; type: biochemical; settings: for IC50: 0.1-1000 nM tested, 37° C. 60 minutes, fluorescence, read-out: HDAC6 (μM), ability to inhibit the activity of HDAC enzyme; for selectivity for HDAC1/6 enzymes (HDAC1/HDAC6): ratio of HDAC1 to HDAC6 values
T1 construct: purchased Calbiochem 382180
T1 sequence (Q9UBN7 1-1215): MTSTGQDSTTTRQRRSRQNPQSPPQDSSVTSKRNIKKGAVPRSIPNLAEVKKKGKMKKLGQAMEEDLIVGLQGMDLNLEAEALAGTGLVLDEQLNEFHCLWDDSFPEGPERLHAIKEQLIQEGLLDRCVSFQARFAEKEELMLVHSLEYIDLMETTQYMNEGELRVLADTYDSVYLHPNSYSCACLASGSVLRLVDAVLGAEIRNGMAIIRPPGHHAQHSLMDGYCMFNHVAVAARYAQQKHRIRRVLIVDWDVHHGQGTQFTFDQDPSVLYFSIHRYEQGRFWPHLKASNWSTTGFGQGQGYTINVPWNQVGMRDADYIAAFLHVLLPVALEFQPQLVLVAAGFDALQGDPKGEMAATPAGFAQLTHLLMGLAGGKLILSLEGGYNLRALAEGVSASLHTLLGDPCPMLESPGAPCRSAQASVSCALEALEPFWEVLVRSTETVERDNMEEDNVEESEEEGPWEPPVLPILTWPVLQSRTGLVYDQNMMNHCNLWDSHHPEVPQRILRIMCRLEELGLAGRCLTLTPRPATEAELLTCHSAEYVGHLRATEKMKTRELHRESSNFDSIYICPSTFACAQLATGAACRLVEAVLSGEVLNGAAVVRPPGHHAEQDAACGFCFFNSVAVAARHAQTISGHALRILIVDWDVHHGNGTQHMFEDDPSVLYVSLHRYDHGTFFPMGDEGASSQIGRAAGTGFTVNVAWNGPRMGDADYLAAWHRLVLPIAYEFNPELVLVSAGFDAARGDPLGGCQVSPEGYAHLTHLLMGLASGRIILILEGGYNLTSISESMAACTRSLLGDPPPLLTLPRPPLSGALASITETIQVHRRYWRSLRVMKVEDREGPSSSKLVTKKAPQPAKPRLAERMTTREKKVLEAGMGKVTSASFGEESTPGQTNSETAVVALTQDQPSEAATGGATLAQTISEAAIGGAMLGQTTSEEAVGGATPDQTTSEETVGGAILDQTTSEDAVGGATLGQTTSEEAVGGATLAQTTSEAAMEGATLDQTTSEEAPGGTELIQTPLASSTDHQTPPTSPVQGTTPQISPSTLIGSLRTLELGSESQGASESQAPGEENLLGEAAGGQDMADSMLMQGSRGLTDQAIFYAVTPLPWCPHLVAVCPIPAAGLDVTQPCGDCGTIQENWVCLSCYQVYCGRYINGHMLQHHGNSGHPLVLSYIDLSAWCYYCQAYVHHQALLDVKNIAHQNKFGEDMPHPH
Protocol: (§1) Using a HDAC1 fluorimetric drug discovery assay kit (Enzolifesciences: BML-AK511) and a HDAC6 human recombinant (Calbiochem: 382180), the HDAC enzyme inhibitory abilities of test compounds were measured. It was treated with 100, 1000 and 10000 nM concentrations for HDAC1 assay, and 0.1, 1, 10, 100 and 1000 nM concentrations for HDAC6 assay. It was allowed to react at 37° C. for 60 minutes, and then was treated with a developer and allowed to react at 37° C. for 30 minutes, after which the fluorescence intensity (Ex 390 nm; Em 460 nm) was measured using FlexStatin3 (Molecular Device).

HDAC1 = target: T2, HDAC1 (Homo sapiens, UniProt Q13547); assay: HDAC1 enzyme inhibition, HDAC1 fluorimetric drug discovery assay kit; type: biochemical; settings: 100-10000 nM tested, 37° C. 60 minutes, fluorescence; read-out: HDAC1 (μM), ability to inhibit the activity of HDAC enzyme
T2 construct: purchased Enzolifesciences BML-AK511
T2 sequence (Q13547 whole entry): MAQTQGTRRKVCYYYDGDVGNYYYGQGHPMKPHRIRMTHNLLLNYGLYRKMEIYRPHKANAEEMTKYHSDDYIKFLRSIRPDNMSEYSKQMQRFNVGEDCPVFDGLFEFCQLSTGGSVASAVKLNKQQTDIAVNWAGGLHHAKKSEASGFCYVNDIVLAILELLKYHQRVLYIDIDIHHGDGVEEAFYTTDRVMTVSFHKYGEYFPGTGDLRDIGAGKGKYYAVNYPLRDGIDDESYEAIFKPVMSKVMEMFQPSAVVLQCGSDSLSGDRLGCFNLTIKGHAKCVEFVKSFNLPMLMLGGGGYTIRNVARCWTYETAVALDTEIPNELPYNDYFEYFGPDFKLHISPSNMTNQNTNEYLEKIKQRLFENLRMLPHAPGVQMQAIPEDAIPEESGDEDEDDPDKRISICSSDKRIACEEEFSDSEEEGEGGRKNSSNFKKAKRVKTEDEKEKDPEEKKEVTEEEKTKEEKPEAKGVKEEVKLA
Protocol: as §1

[1] = system: adjuvant-induced arthritis models; assay: Adjuvant-induced arthritis model, clinical score; type: in vivo; settings: Lewis rat, vehicle 9-11
Protocol: […] of complete Freund's adjuvant (Chondrex) was injected intradermally into the tail of each Lewis rat to induce animal models. From one day before induction, the rats were divided into groups based on body weight, and the test compound was administered orally to the rats at various doses once a day, followed by evaluation.
Clinical score and body weight were measured twice a week from the day of first administration of the test compound. The clinical score was recorded as 0-4 points, and the total clinical score was evaluated after observing the foot of each rat (0: normal; and 16: the most severe edema).
The medicinal effect of the test compound in the arthritis models was evaluated based on the degree of joint edema, and a higher clinical score indicates a more severe degree of edema.

Row | Compound | IC50 (HDAC6 human recombinant) [µM] | IC50 (HDAC1) [µM] | selectivity for HDAC1/6 enzymes (HDAC1/HDAC6) (HDAC6 human recombinant) [fold] | clinical score (joint edema, 0: normal; 16: the most severe edema) ([1]; 1 mg/kg orally once a day) | clinical score (joint edema, 0: normal; 16: the most severe edema) ([1]; 10 mg/kg orally once a day) | clinical score (joint edema, 0: normal; 16: the most severe edema) ([1]; 50 mg/kg orally once a day)
1 | O=C(CCCCCCNC(=O)N1CCC(N(c2ccccc2)c2ccc(F)cc2)CC1)NO [Compound 1734, 4-((4-fluorophenyl)(phenyl)amino)-N-(7-(hydroxyamino)-7-oxoheptyl)piperidine-1-carboxamide] | 0.094 | 0.886 | – | – | – | –
2 | O=C(CCCCCCNS(=O)(=O)N1CCC(C(O)(c2ccccc2)c2ccccc2)CC1)NO [Compound 1210, N-hydroxy-7-((4-(hydroxydiphenylmethyl)piperidine)-1-sulfonamido)heptanamide] | 0.07 | 1.19 | – | – | – | –
3 | O=C(CCCCCCNC(=O)N1CCC(N(c2ccccc2)c2cccc(F)c2)CC1)NO [Compound 1719, 4-((3-fluorophenyl)(phenyl)amino)-N-(7-(hydroxyamino)-7-oxoheptyl)piperidine-1-carboxamide] | 0.116 | 1.73 | – | – | – | –
4 | O=C(CCCCCCNC(=O)N1CCN(C(c2ccccc2F)c2ccccc2F)CC1)NO [Compound 1647, 4-(bis(2-fluorophenyl)methyl)-N-(7-(hydroxyamino)-7-oxoheptyl)piperazine-1-carboxamide] | 0.019 | 0.466 | – | – | – | –
5 | CN(CCCCCCC(=O)NO)C(=O)N1CCN(C(c2ccccc2)c2ccccc2)CC1 [Compound 1213, 4-benzhydryl-N-(7-(hydroxyamino)-7-oxoheptyl)-N-methylpiperazine-1-carboxamide] | 0.044 | 0.704 | – | – | – | –
6 | O=C(CCCCCCNC(=O)N1CCC(C(O)(c2ccccc2)c2ccccc2)CC1)NO [Compound 1124, N-(7-(hydroxyamino)-7-oxoheptyl)-4-(hydroxydiphenylmethyl)piperidine-1-carboxamide] | 0.024 | 4.09 | 170 | – | – | –
7 | CN(CCCCCCC(=O)NO)C(=O)C1CCN(C(c2ccccc2)c2ccccc2)CC1 [Compound 1256, 1-benzhydryl-N-(7-(hydroxyamino)-7-oxoheptyl)-N-methylpiperidine-4-carboxamide] | 0.038 | 0.08 | – | – | – | –
8 | N-(7-(hydroxyamino)-7-oxoheptyl)-4-(phenyl(4-(trifluoromethyl)phenyl)amino)piperidine-1-carboxamie [Compound 1726] | 0.228 | 3.7 | – | – | – | –
9 | O=C(CCCCCCNC(=O)N1CCC(C(F)(c2ccccc2)c2ccccc2)CC1)NO [Compound 1649, 4-(fluorodiphenylmethyl)-N-(7-(hydroxyamino)-7-oxoheptyl)piperidine-1-carboxamide] | 0.033 | 0.463 | – | – | – | –
10 | CC(c1ccccc1)N1CCN(C(=O)NCCCCCCC(=O)NO)CC1 (stereo not drawn) [Compound 1241, N-(7-(hydroxyamino)-7-oxoheptyl)-4-(1-phenylethyl)piperazine-1-carboxamide] | 0.025 | 0.72 | – | – | – | –
11 | O=C(CCCCCCNC(=O)N1CCC(N(c2ccccc2)c2ccccc2)CC1)NO [Compound 1221, 4-(diphenylamino)-N-(7-(hydroxyamino)-7-oxoheptyl)piperidine-1-carboxamide] | 0.079 | 1.88 | – | – | – | –
12 | O=C(CCCCCCNC(=O)N1CCN(C(c2ccc(Cl)cc2)c2ccc(Cl)cc2)CC1)NO [Compound 1224] | 0.087 | 3.96 | – | – | – | –
13 | CC(c1ccccc1)N1CCC(C(=O)NCCCCCCC(=O)NO)CC1 (stereo not drawn) [Compound 1243, N-(7-(hydroxyamino)-7-oxoheptyl)-1-(1-phenylethyl)piperidine-4-carboxamide] | 0.017 | 0.54 | – | – | – | –
14 | O=C(CCCCCCNC(=O)N1CCN(C(c2ccc(F)cc2)c2ccc(F)cc2)CC1)NO [Compound 1223] | 0.073 | 1.16 | – | – | – | –
15 | O=C(CCCCCCNC(=O)N1CCN(C(c2cccc(F)c2)c2cccc(F)c2)CC1)NO [Compound 1648] | 0.029 | 0.729 | – | – | – | –
16 | O=C(CCCCCNC(=O)N1CC2(CCN(C(c3ccccc3)c3ccccc3)CC2)C1)NO [Compound 1763, 7-benzhydryl-N-(6-(hydroxyamino)-6-oxohexyl)-2,7-diazaspiro[3.5]nonane-2-carboxamide] | 0.201 | 0.023 | – | – | – | –
17 | O=C(CCCCCCNC(=O)N1CCN(C(c2ccccn2)c2ccccn2)CC1)NO [Compound 1222] | 0.085 | 0.71 | – | – | – | –

More lines, main results first:

Row | IC50 (HDAC6 human recombinant) [µM] | IC50 (HDAC1) [µM] | selectivity for HDAC1/6 enzymes (HDAC1/HDAC6) (HDAC6 human recombinant) [fold] | Compound | clinical score (joint edema, 0: normal; 16: the most severe edema) ([1]; 1 mg/kg orally once a day) | clinical score (joint edema, 0: normal; 16: the most severe edema) ([1]; 10 mg/kg orally once a day) | clinical score (joint edema, 0: normal; 16: the most severe edema) ([1]; 50 mg/kg orally once a day)
18 | 0.336 | 0.023 | – | O=C(CCCCCCCNC(=O)C1CCN(C(c2ccccc2)c2ccccc2)CC1)NO [Compound 1317] | – | – | –
19 | 0.07 | 0.41 | – | O=C(CCCCCCCNC(=O)N1CCN(C(c2ccccc2)c2ccccc2)CC1)NO [Compound 1240, 4-benzhydryl-N-(8-(hydroxyamino)-8-oxoethyl)piperazine-1-carboxamide] | – | – | –
20 | 0.04 | 0.236 | – | O=C(CCCCCCNC(=O)N1CC2(CCN(C(c3ccccc3)c3ccccc3)CC2)C1)NO [Compound 1764, 7-benzhydryl-N-(7-(hydroxyamino)-7-oxoheptyl)-2,7-diazaspiro[3.5]nonane-2-carboxamide] | – | – | –
21 | 0.025 | 0.84 | – | C[C@@H]1CN(C(c2ccccc2)c2ccccc2)CCN1C(=O)NCCCCCCC(=O)NO [Compound 1189, (R)-4-benzhydryl-N-(7-(hydroxyamino)-7-oxoheptyl)-2-methylpiperazine-1-carboxamide] | – | – | –
22 | 0.004 | 3.84 | 960 | O=C(CCCCCCNC(=O)N1CCN(C(c2ccccc2)c2ccccc2)CC1)NO [Compound 1102, 4-benzhydryl-N-(7-(hydroxyamino)-7-oxoheptyl)piperazine-1-carboxamide] | 6-8 | 4-6 | 1-3
23 | 0.065 | 1.34 | – | C[C@H]1CN(C(c2ccccc2)c2ccccc2)CCN1C(=O)NCCCCCCC(=O)NO [Compound 1190, (S)-4-benzhydryl-N-(7-(hydroxyamino)-7-oxoheptyl)-2-methylpiperazine-1-carboxamide] | – | – | –
24 | 0.006 | 1.16 | 193 | O=C(CCCCCCNC(=O)C1CCN(C(c2ccccc2)c2ccccc2)CC1)NO [Compound 1209, 1-benzhydryl-N-(7-(hydroxyamino)-7-oxoheptyl)piperidine-4-carboxamide] | – | – | –
25 | 0.014 | 1.68 | – | C[C@@H]1CN(C(c2ccccc2)c2ccccc2)C[C@H](C)N1C(=O)NCCCCCCC(=O)NO [Compound 1188, (2S,6R)-4-benzhydryl-N-(7-(hydroxyamino)-7-oxoheptyl)-2,6-dimethylpiperazine-1-carboxyamide] | – | – | –
26 | 0.063 | 0.159 | – | O=C(CCCCCNC(=O)N1CCN(C(c2ccccc2)c2ccccc2)CC1)NO [Compound 1257, 4-benzhydryl-N-(6-(hydroxyamino)-6-oxohexyl)piperazine-1-carboxamide] | – | – | –
27 | 0.456 | 0.236 | – | O=C(CCCCCNC(=O)C1CCN(C(c2ccccc2)c2ccccc2)CC1)NO [Compound 1316, 1-benzhydryl-N-(6-(hydroxyamino)-6-oxohexyl)piperidine-4-carboxamide] | – | – | –
